# US7276480B1, “Prevention and reduction of blood loss” (Dyax Corp., priority 2005, dated 2007)
# No end group written: not given here.
# Biological target: human plasma kallikrein (Homo sapiens, UniProt P03952)
# Assay: Affinity (Ki,app) for plasma proteases, Table 1
# Format: biochemical
# Chain of human plasma kallikrein (P03952 391-638 limits assumed): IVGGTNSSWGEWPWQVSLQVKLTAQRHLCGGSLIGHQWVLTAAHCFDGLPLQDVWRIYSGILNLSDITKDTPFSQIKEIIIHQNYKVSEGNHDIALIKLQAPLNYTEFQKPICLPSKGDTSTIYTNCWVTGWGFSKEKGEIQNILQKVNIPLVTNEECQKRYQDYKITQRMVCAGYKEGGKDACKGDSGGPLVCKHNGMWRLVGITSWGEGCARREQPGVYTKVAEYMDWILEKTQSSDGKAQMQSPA
# Chain of human plasma kallikrein (P03952 20-390 limits assumed): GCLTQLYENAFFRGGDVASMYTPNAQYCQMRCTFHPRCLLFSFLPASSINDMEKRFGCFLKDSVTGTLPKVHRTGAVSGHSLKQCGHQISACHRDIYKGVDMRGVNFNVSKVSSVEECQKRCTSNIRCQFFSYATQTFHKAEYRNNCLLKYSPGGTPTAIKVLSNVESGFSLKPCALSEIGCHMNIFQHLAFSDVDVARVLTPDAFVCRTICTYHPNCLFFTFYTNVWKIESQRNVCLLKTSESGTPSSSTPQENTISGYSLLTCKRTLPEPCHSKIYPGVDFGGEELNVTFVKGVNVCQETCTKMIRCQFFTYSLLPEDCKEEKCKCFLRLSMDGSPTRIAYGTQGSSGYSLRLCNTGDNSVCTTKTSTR
"concentration in the plasma required to inhibit 99% of the kallikrein at 1 nM (kallikrein 1 nM, 99% inhibition)","Ki (read-out: Ki,app, human plasma kallikrein) [nM]",Substance,specificity among kallikrein and eleven other plasma proteases (from Table 1),"affinity (Ki,app) for kallikrein relative to the affinity of aprotinin (ratio versus aprotinin) [times higher]"
at least 3 mu.M,30,aprotinin,,
,,"PEP-1: non-naturally occurring KI polypeptide, 60-amino acid sequence of SEQ ID NO:2, recombinant from Pichia pastoris (EAMHSFCAFKADDGPCRAAHPRWFFNIFTRQCEEFIYGGCEGNQNRFESLEECKKMCTRD; ends and bridges not checked; cysteine pairing not given here)",highly specific for human plasma kallikrein,1000
